The record followed here is a melting point compilation (Tetko et al.; mined from patent text by program, amines drawn as free bases though some values may be those of a salt).

SMILES strings stand for the structures.

In general, melting point refers to the temperature of the solid-liquid transition. On to `Cn1cc(C(=O)NC2CCCNC(=O)C2)nn1` (centres undefined), for which the melting point was in the range of 259 to 260 °C.

With `CCOc1cccc(NC(=O)Nc2ccc(N3CCN(C(=O)Nc4cc(OCCO)ccc4Cl)CC3)nc2)c1`, the melting point fell in the range of 140 to 143 °C.

Compound `CN(Cc1cccnc1)C(=N)NC#N` had a melting point of 141 to 143 °C.

The compound `CCCCN1C(=O)C2(COc3cc4c(cc32)OCO4)c2ccccc21` (centres undefined) returned a melting point of 119 to 120 °C.

In turn, `COC(=O)c1cc(Cl)c(-n2[nH]c(N)cc2=O)c(Cl)c1` registered a melting point of 225 to 229 °C.

On to `CN(C)Cc1nc(C=Cc2nc3ccc(F)cc3c(=O)n2-c2ccccc2F)cs1`, for which the melting point lay in the range of 163 to 165 °C.

In the case of `COc1ccc2c(c1)nc(O)c1nncn12`, the melting point was over 250 °C.

As to `O=C(O)C(=O)c1ccc(OCCOc2ccc3ccccc3c2)cc1`, the melting point was 144 to 145 °C.

`NC(=O)c1ncn2c1[C@@H]1CCCN1C(=O)c1cc(F)ccc1-2` registered a melting point of 239 to 240 °C.

For `CC1(C)C=NC(C(NC(c2ccccc2)(c2ccccc2)c2ccccc2)C(=O)O)S1` (centres undefined), the melting point is 180 to 182 °C.

`C#CCOc1ccc(CCN(OS(C)(=O)=O)C(=O)Cc2ccc(Cl)cc2)cc1OC` displayed a melting point of 91 to 93 °C.

`O=C(NO)c1ccc(C(=O)NOCCCc2ccccc2)cc1` came in with a melting point of 179 to 181 °C.

Regarding `O=C(Cc1ccccc1)NCc1cccc2c1C(=O)N(C1CCC(=O)NC1=O)C2=O` (centres undefined), the melting point lay within 128 to 130 °C.

The compound `O=c1c2cc(F)c(F)cc2n(CCF)c(=O)n1OCc1ccccc1` yielded a melting point of 145 to 147 °C.

The compound `CN(C)c1ccc2sc(C=O)cc2c1` had a melting point of 105 to 106 °C.

The compound `COc1ccnc(CSc2nc3cc4c(cc3[nH]2)OC(F)(F)O4)c1OC` showed a melting point of 185 to 187 °C.

On to `ON=Cc1cccc2cccc(N3CCCC3)c12`, for which the melting point lay in the range of 187 to 188 °C.

Compound `CC(C)(C)C(=O)c1c[nH]c2ncc(-n3ccc4ccccc43)nc12` had a melting point of 205 to 207 °C.

Consider `Cc1nc2cc(C34CC5CC(CC(C5)C3)C4)cc(-c3cccc(C=C4SC(=S)NC4=O)c3)c2o1`, for which the melting point was found to be 310 °C.

`COc1cc(C(=O)Nc2c(Cl)cncc2Cl)ccc1OC(F)F` showed a melting point of 170 °C.

For the compound `O=C(O)C(Cl)=C(Cl)C(=O)N(CCCl)CCCl`, the melting point fell in the range of 107 to 110 °C.

`COCCOc1cc(OC)c2c(=O)[nH]c(-c3ccnc(C)c3)nc2c1`: the melting point was in the range of 260 to 262 °C.

`CCC(CC)n1cnc2c(Oc3c(C)cc(C)cc3C)nc(C)cc21` registered a melting point of 127 to 131 °C.

Compound `Nc1ccc(Oc2c(Cl)cc(C(F)(F)F)cc2Cl)cc1` registered a melting point of 128 to 130 °C.

On to `COc1cc2c(Nc3ccc4cn[nH]c4c3)c(C#N)cnc2cc1OCCN(C)C`, for which the melting point is 218 to 219 °C.

With `CN(C)CC1CNc2cc(O)ccc2C1` (centres undefined), the melting point lay in the range of 151 to 152 °C.

The compound `CCOC(=O)c1ncn2c1CN=C(c1ccccc1)c1cc(I)ccc1-2` registered a melting point of 221 to 222 °C.

As for `CC#COc1ccc2c(=O)c(C)c(-c3ccccc3)oc2c1`, the melting point was 179 to 180 °C.

As to `CC(CCCOc1ccc(C2=C(c3ccccc3)CCCc3cc(O)ccc32)cc1)S(=O)(=O)Cc1ccco1` (centres undefined), the melting point was determined as 168 °C.

In turn, `CCN(C=O)c1ccccc1C(=O)COC(=O)c1ccccc1` came in with a melting point of 78 to 80 °C.

Regarding `Cc1oc(-c2ccccc2)nc1CCc1noc(COc2ccccc2CC(=O)O)n1`, the melting point is 120 to 121 °C.

Regarding `O=C(N[C@@H](Cc1ccccc1)C(=O)CSCc1ccco1)OCc1ccccc1`, the melting point came to 64 °C.

With `Nc1cc(Cl)ccc1C(=O)NCCCc1cccnc1`, the melting point was in the range of 145 to 147 °C.

As for `Cc1cc(N2N=CCNC2=O)cc(Cl)c1Cc1ccc(Cl)cc1`, the melting point lay in the range of 209 to 210 °C.

`O=[N+]([O-])c1ccc(Oc2cc(Cl)c(Cl)cc2Cl)c(Cl)c1Oc1ccccc1`: the melting point turned out to be 112 °C.

With `CC(=O)Oc1cc2nc[nH]c(=O)c2cc1OCc1ccccc1`, the melting point is 231 to 233 °C.

`COc1cccc([C@H]2O[C@H](CC(=O)NCP(=O)(O)O)C(=O)N(CC(C)(C)C)c3ccc(Cl)cc32)c1OC`: the melting point was in the range of 152 to 155 °C.

Compound `CC(C)(C)OC(=O)NC(=NS(=O)(=O)C(F)(F)F)NC(=O)OCc1ccccc1` showed a melting point of 95 to 97 °C.

`O=c1c(O)c(-c2ccco2)oc2ccccc12` displayed a melting point of 173 to 174 °C.

On to `Cc1nc(C(F)F)ccc1C(=O)C1=C(NS(=O)(=O)c2ccccc2)C(C)(C)C(=O)C(C)(C)C1=O`, for which the melting point worked out at 130 °C.

`CCCCNC(=O)CN1C(=O)C(NC(=O)OCc2ccccc2)N=C(c2ccccc2)c2ccccc21` (centres undefined) returned a melting point of 127 to 129 °C.

In turn, `CCCSNc1ccc(N)cc1` registered a melting point of 213 to 225 °C.

`CC(=O)Nc1scc(C)c1C(=O)c1ccccc1`: the melting point was 106 to 107 °C.

Compound `COSN=C1C(=O)N(C)C(=O)N1c1ccccc1F` displayed a melting point of 124 to 127 °C.

`CC(=O)c1c(-c2ccccc2)nn2ccccc12` displayed a melting point of 84 to 85 °C.

`COC(=O)COc1cc(C)nc(NC(=O)NS(=O)(=O)c2cccs2)n1` had a melting point of 114 to 120 °C.

The compound `O=C(O)C=CC=Cc1cc(O)c(O)cc1Cl` returned a melting point of 203 to 206 °C.

In turn, `CC(C)=NOCc1nc2c(N)nc3ccccc3c2n1CCCNS(C)(=O)=O` yielded a melting point of 178 to 179 °C.

Regarding `O=c1[nH]c2c(cc1-c1nc(-c3ccccc3)no1)CN(Cc1ccccc1)CC2`, the melting point fell in the range of 231 to 233 °C.

`Cc1cc(-c2ccc(C#N)cc2)nc(-c2cccc(-c3cccc(S(N)(=O)=O)c3)n2)n1` gave a melting point of 255 °C.

`CC(=O)Oc1ccc(N)cc1C(=O)O` had a melting point of 133 to 136 °C.

`O=C(CN1CC(c2ccc(Cl)cc2)CC1=O)N1CCNCC1` (centres undefined): the melting point was 148 to 150 °C.

`c1ccc(CON=C2CC(=NOCc3ccccc3)c3ccccc3-c3ccccc32)cc1`: the melting point worked out at 112 °C.

For `CC1(C)COc2cc3c(cc21)C1(CO3)C(=O)Nc2ccccc21` (centres undefined), the melting point lay within 95 to 100 °C.

In the case of `Cc1ccc(Cl)cc1N1C(=O)CN(C)C1=S`, the melting point is 132 to 134 °C.

Regarding `CCc1cc(C(=O)c2ccccc2Cl)c(-n2c(C)nnc2CNC(=O)c2ccc(Cl)c(Cl)c2)s1`, the melting point was in the range of 151 to 152 °C.

As for `CC(C)(C)OC(=O)Nc1ccc(OC2CN(CC(c3ccccc3)c3ccccc3)C2)cc1`, the melting point is 149 to 151 °C.

For the compound `Cc1cncn1-c1cc(C#N)cc(C(F)(F)F)c1`, the melting point lay within 99 to 101 °C.

Compound `O=C1Cc2cc(NC(=O)C(=O)N3CCC(COc4ccccc4)CC3)ccc2N1` yielded a melting point of 200 to 202 °C.

`O=C1NC(=O)C(Cc2ccc(C(=O)/C=C/c3ccccc3)cc2)S1` (centres undefined): the melting point was in the range of 147 to 149 °C.

Compound `CC1C=CC(C(=O)O)n2c(=O)n(CCC(=O)O)c(=O)n21` (centres undefined) registered a melting point of 184 to 186 °C.

On to `CC(=O)NC[C@H]1CN(c2ccc(C3CCN(C(=O)CO)CC3)cc2)C(=O)O1`, for which the melting point lay in the range of 155 to 157 °C.

As for `O=C(Nc1ccc(C(CC2CCCC2)C(=O)Nc2nccs2)cc1)c1cccnc1` (centres undefined), the melting point was 240 to 242 °C.

`COc1ccc2cccc(C(CNC(C)=O)COS(C)(=O)=O)c2c1` (centres undefined) came in with a melting point of 104 to 106 °C.

As to `CN(C)CC(=O)NCc1ccc(-c2cc3c(Nc4ccc(F)c(Cl)c4)ncnc3[nH]2)cc1`, the melting point is 320 to 325 °C.

In turn, `CCN(C(=O)OCc1ccccc1)c1c(OC)cc(C(=O)OC)cc1OC` had a melting point of 85 to 86 °C.

In turn, `Nc1nc(N)c(-c2ccc(Cl)cc2Cl)c(C(F)(F)F)n1` showed a melting point of 220 to 221 °C.

As to `COc1ccc2c(Cl)cc(-n3cccn3)nc2c1`, the melting point is 80 °C.

`O=C(O)Cc1ccc(-c2ccc(F)cc2F)cc1` yielded a melting point of 143 to 145 °C.

The compound `Cc1cc(N2C=C3C(c4ccccc4)=C(OCc4ncn(C)n4)NN3C=N2)no1` yielded a melting point of 194 to 196 °C.

The compound `COc1ccc2cccnc2c1N` showed a melting point of 114 to 115 °C.

As for `N=C(N)NCCc1ccc(NC(=O)CC(c2ccccc2)(c2ccccc2)c2ccccc2)cc1`, the melting point was 213 to 215 °C.

`CN(CC1CCc2c(cccc2OCC(=O)O)C1)c1cnc(-c2ccccc2)c(-c2ccccc2)n1` (centres undefined) gave a melting point of 212 to 213 °C.

Compound `C=C1C(O)C(CO)OC1n1cc(CC)c(N)nc1=O` (centres undefined) yielded a melting point of 194 to 196 °C.

Regarding `CON(C(=O)C1=C(O)C(=O)N(C)C1)C(C)c1ccc(F)cc1` (centres undefined), the melting point fell in the range of 136 to 138 °C.

Turning to `CC(C)Cc1cc(-c2cc(C=C3SC(=O)NC3=O)ccc2OC(F)(F)F)c2c(c1)C(C)(C)CO2`, the melting point was in the range of 142 to 146 °C.

The compound `CCOP(=O)(Cc1nc(Cl)cc(N2CCCC2)n1)OCC` came in with a melting point of 68 to 69 °C.

`CC(C)(C)OC(=O)CN(O)CC(=O)OC(C)(C)C` gave a melting point of 73 to 76 °C.

Compound `CN(C)C1(c2ccccc2)CCC(=CC(=O)NCc2ccccc2)CC1` (centres undefined) came in with a melting point of 145 to 148 °C.

As to `Cc1ccc(C(=O)Nc2ccc(CN3CCCC3)c(C(F)(F)F)c2)cc1-c1ccc2cnncc2c1`, the melting point lay within 168 to 170 °C.

`Cn1c([N+](=O)[O-])cnc1COc1ccc([N+](=O)[O-])cc1` registered a melting point of 150 °C.

The compound `CN1CCN(C2=Nc3cc(F)ccc3Nc3ccsc32)CC1` came in with a melting point of 206 to 208 °C.

Compound `Nc1cc(OCCO)nc(N)n1` yielded a melting point of 190 °C.

With `CCn1c(=N)c(-c2ccc3ccccc3c2)cc2cnc(Nc3ccccc3)nc21`, the melting point lay within 236 to 242 °C.

Turning to `Cc1ccccc1C(=O)N[C@@H](CC(C)C)C(=O)N[C@@H](C(C)C)[C@@H](O)c1c(-c2ccccc2)c1=O`, the melting point is 101 to 105 °C.

Take `CC(C)(C)OC(=O)/C(=C/C1CCCCC1)C(=O)c1ccccc1O`: the melting point is 62 to 65 °C.

With `Cc1cc(CNC(=O)c2cc(-c3ccc(-c4ccccc4C)cc3)nn2C)ccc1OC(C)(C)C(=O)O`, the melting point was in the range of 90 to 100 °C.

Turning to `Cc1oc(-c2ccccc2)nc1COc1ccc(CCl)cc1`, the melting point was in the range of 108 to 109 °C.

Take `c1cc(-c2ccncc2)c2sccc2c1`: the melting point was in the range of 71 to 72 °C.
